Legend:
human cathepsin S = target: T1, human cathepsin S (Homo sapiens, UniProt P25774); experiment: Enzyme assay, human cathepsin S; type: biochemical; conditions: geometric mean
T1 construct: made in house
Excerpt: (§1) Recombinant cathepsin K enzymes from all species were expressed in E. coli, purified and activated. Human cathepsin F and cathepsin S were expressed in Baculovirus, purified and activated. Purified human cathepsins B and H (Athens Research Technology), cathepsin L (Calbiochem), and cathepsin V (R & D Systems) were purchased.
(§2) H-D-Ala_Leu-Lys-AMC was used as the substrate in assays of cathepsin K from non-rodent species (human, dog, rabbit and guinea pig), and Z-Leu-Arg-AMC was used as the substrate in assays of cathepsin K from rodent species (mouse and rat). […]
(§3) Assays were carried out in white polystyrene 96-well plates in a final volume of 100 µL. […] Plates were read in a Fluoroskan Ascent (Thermo Labsystems, Helsinki, Finland) in kinetic mode, with excitation and emission filters of 390 and 460 nm, respectively. Rates were determined by linear regression of the fluorescence/time data in Excel. Rates were fitted by non-linear regression to either the competitive inhibition equation, with the substrate concentration fixed at the value in the assay and the KM fixed to the value previously determined, or the IC50 equation using GraphPad Prism (GraphPad, version 6, San Diego, USA) to obtain Ki or IC50 values, respectively.

human cathepsin L = target: T2, human cathepsin L (Homo sapiens, UniProt P07711); experiment: Enzyme assay, human cathepsin L; type: biochemical; conditions: geometric mean
T2 construct: purchased Calbiochem
T2 sequence (P07711 114-333): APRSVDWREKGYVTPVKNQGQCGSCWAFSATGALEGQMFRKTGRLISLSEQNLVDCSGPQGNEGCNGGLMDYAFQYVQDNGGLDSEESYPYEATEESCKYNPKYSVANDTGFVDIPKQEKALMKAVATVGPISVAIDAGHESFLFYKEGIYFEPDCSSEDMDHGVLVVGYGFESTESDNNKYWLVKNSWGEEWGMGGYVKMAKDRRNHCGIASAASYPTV
Excerpt: as §1, §2, §3

urine CTX-II = experiment: Monkey urine CTX-II, multiple doses; type: in vivo, cynomolgus monkeys (Macaca fascicularis)
Procedure: Biomarkers such as NTX-I (bone resorption) and CTX-II (cartilage degradation) are typically measured in urine. Additional experiments in which urine was collected were therefore performed. In these experiments, four cynomolgus monkeys (Macaca fascicularis) were used (Aptuit, Edinburgh, UK). The animals were healthy young females weighing 3.5–4 kg. Animals were dosed with vehicle or MIV-711 via oral gavage at a dose volume of 5 mL/kg between 7:30 and 8:30 a.m. Animals first received vehicle via oral gavage for five consecutive days. After a washout period, the animals then received MIV-711 (30 µmol/kg) via oral gavage for five consecutive days.
Urine was collected between 8–12 a.m., 12 a.m.–4 p.m. and 4 p.m.–8 a.m. on Day 1 and Day 5 of respective treatment. Biomarkers were measured in each urine sample, corrected for creatinine, and the mean value of the three samples on Day 1 and Day 5 was calculated. The effect of MIV-711 was evaluated by comparing biomarkers in urine samples collected on Day 1 and Day 5 with respective vehicle sample. [drawing 3]
The quantification of CTX-I in monkey plasma samples and human serum samples was performed using a commercially available kit (Serum CrossLaps ELISA, IDS Nordic, Herlev, Denmark). The levels of CTX-I in monkey urine samples were measured using a commercially available kit (Urine BETA CrossLaps ELISA, IDS Nordic). […]

mouse cathepsin K = target: T3, mouse cathepsin K (Mus musculus, UniProt P55097); experiment: Recombinant enzyme assay, mouse cathepsin K; type: biochemical; conditions: footnote a: IC50
T3 construct: made in house; host or cells: E. coli
T3 sequence (P55097 115-329): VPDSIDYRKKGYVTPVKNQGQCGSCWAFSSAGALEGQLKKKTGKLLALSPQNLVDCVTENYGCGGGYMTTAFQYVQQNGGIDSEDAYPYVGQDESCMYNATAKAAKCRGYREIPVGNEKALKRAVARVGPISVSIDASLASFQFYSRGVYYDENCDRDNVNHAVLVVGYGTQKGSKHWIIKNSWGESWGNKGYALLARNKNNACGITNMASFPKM
Excerpt: as §1, §2, §3

T1 sequence (P25774 115-331): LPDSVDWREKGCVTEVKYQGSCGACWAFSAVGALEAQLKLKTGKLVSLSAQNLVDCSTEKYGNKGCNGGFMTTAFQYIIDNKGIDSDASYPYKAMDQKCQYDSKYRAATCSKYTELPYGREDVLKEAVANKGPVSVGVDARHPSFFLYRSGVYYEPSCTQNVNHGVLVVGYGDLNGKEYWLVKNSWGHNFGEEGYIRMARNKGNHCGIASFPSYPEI

`C#C[C@@H]1CN(C(=O)[C@H](CC(C)C)NC(=O)c2ccc(-c3nc(N4CCN(C)CC4)sc3F)cc2)[C@@H]2C(=O)CO[C@H]12` [MIV-711] was tested, and the Ki (human cathepsin S) was 15700 nM, the Ki (human cathepsin L) was 1700 nM and the “Reduction of urinary CTX-II compared to vehicle” value (urine CTX-II; 30 µmol/kg p.o. once daily for 5 days, creatinine-corrected) was 71%. For the same molecule, the “Effect on urinary CTX-II compared to vehicle” value (urine CTX-II; single dose 30 µmol/kg p.o. (Day 1)) was “unaffected” and the IC50 (mouse cathepsin K) was 1000 nM.
